{"source": "patent US20230203060A1", "about": "(GENFLEET THERAPEUTICS (SHANGHAI) INC., priority 2020, published 2023)"}
{"tested_on": "phosphorylated ERK downstream of KRAS G12C in MIA PaCa2 cells", "assay": "Cell p-ERK detection experiment (HTRF) in MIA PaCa2", "format": "cell-based, human", "settings": "Homo sapiens, MIA PaCa-2, 2 h, MIA PaCa2 cells, 2 hours with compound, Advance ERK phospho-T202/Y204 HTRF kit; read-out: p-ERK IC50", "from_the_text": "Raw materials and instruments: MIA PaCa-2 purchased from ATCC; article number: CRL-1420; batch number: 63143594; DMEM purchased from Gibco; article number: 11995-065; batch number: 2186878; FBS purchased from Gibco; article number: 10099-141; batch number: 2109290CP; Horse serum purchased from Gibco; article number: 16050-122; batch number: 1818976; Trypsin-EDTA purchased from Gibco; article number: 25200-072; batch number: 2085552; PS purchased from Gibco; article number: 15140-122; batch number: 2145451; DMSO purchased from VWR AMRESCO; article number: 0231-500ML; batch number: 0457C072; 96-well cell culture plate purchased from Corning; article number: 3599; batch number: 22718601; white opaque 96-well plate purchased from Cisbio; article number: 66PL96025; batch number: N°05; Advance ERK phospho-T202/Y204 kit purchased from Cisbio; article number: 64AERPEH; batch number: 11D; microplate reader purchased from PerkinElmer; model: Envision MLD2105-0020; equipment number 1050369.\nMIA PaCa2 was a KRAS G12C mutant human pancreatic cancer cell line cultured in 10% FBS+2.5% Horse serum DMEM culture medium. Cells at logarithmic growth stage were taken, digested with trypsin-EDTA, then collected and counted, and 2.5E4 cells were inoculated in a 96-well cell culture plate and cultured overnight. A 3.16-fold gradient concentration stock solution of 1000× compound was prepared with DMSO, and diluted 200-fold to 5× compound stock solution with culture medium. On the second day after cell inoculation, 5× compound stock solution was added to each cell culture well, with a final concentration of 1× and a DMSO content of 0.1%. DMSO was used as experimental control (control). After the compound was added and cultured for two hours, the residual culture medium was removed. 50 μL of cell lysate (from Advance ERK phospho-T202/Y204 kit, the same below) was added to each well, mixed well and incubated for 30 minutes, and then 16 μL of the mixed solution was transferred to a white opaque 96-well plate, and 16 μL of cell lysate was added to the blank wells. After the transfer was completed, 4 μL of p-ERK HTRF antibody (from Advance ERK phospho-T202/Y204 kit) mixture was added to each well, incubated for 4 hours, and the fluorescence value was read with the microplate reader. The inhibition rate of the compound IR (%)=(RLU control -RLU compound)/(RLU control-RLU blank)×100% was calculated. The gradient dilution concentration of the compound and the corresponding cell proliferation inhibition rate were fitted by Prism 8 four-parameter method, and the IC50 value was calculated. The compounds prepared in the above embodiments of the present disclosure have inhibitory activity of 0.0001 μM to 1 μM on the phosphorylated ERK level downstream of the cell channel of KRAS G12C protein mutant; some compounds have inhibitory activity of 0.001 μM to 1 μM or 0.001 μM to 0.5 μM on phosphorylated ERK level downstream of cell channel of KRAS G12C protein mutant.", "units": {"IC50": "nM"}}
{"smiles": "C=CC(=O)N1CCN2C(=O)c3c(N4C[C@@](C)(O)CC4(C)C)nc(-c4c(O)cccc4F)c(Cl)c3OC[C@H]2C1", "note": "(single isomer, unassigned) [Z243-1]", "IC50": 8}
{"smiles": "C=CC(=O)N1CCN2C(=O)c3c(N4CCN(C)C(C)C4C)nc(-c4c(O)cccc4F)c(Cl)c3OC[C@H]2C1", "note": "(stereo partly drawn) [Z369, (6aR)-8-acryloyl-4-chloro-3-(2-fluoro-6-hydroxyphenyl)-1-(2,3,4-trimethylpiperazin-1-yl)-6,6a,7,8,9,10-hexahydro-12H-pyrazino[2,1-c]pyrido[3,4-f][1,4]oxazepin-12-one]", "IC50": 29}
{"smiles": "C=CC(=O)N1CCN2C(=O)c3c(N4C[C@H](N(C)CCOC)CC4(C)C)nc(-c4c(O)cccc4F)c(Cl)c3OC[C@H]2C1", "note": "(single isomer, unassigned) [Z296-2]", "IC50": 32}
{"smiles": "C=CC(=O)N1CCN2C(=O)c3c(N4C[C@@H](N(C)C)CC4(C)C)nc(-c4c(O)cccc4F)c(Cl)c3OC[C@H]2C1", "note": "(single isomer, unassigned) [Z324-1]", "IC50": 15}
{"smiles": "C=CC(=O)N1CCN2C(=O)c3c(N4C[C@@H](OC)C[C@@H]4C)nc(-c4c(O)cccc4F)c(F)c3OC[C@H]2C1", "note": "[Z359-1, (6aR)-8-actyloyl-4-fluoro-3-(2-fluoro-6-hydroxyphenyl)-1-((2S,4S)-4-methoxy-2-methylpyrrolidin-1-yl)-6,6a,7,8,9,10-hexahydro-12H-pyrazino[2,1-c]pyrido[3,4-f][1,4]oxazepin-12-one]", "IC50": 93}
{"smiles": "C=CC(=O)N1CCN2C(=O)c3c(N4CCN(CCOC)C[C@@H]4C)nc(-c4c(O)cccc4F)c(Cl)c3OC[C@H]2C1", "note": "[Z257a, (6aR)-8-acryloyl-4-chloro-3-(2-fluoro-6-hydroxyphenyl)-1-((S)-4-(2-methoxyethyl)-2-methylpiperazin-1-yl)-6,6a,7,8,9,10-hexahydro-12H-pyrazino[2,1-c]pyrido[3,4-f][1,4]oxazepin-12-one]", "IC50": 26}
{"smiles": "C=CC(=O)N1CCN2C(=O)c3c(N4C[C@H](N5CCOCC5)CC4(C)C)nc(-c4c(O)cccc4F)c(Cl)c3OC[C@H]2C1", "note": "(single isomer, unassigned) [Z297-1]", "IC50": 11}
{"smiles": "C=CC(=O)N1CCN2C(=O)c3c(N4C[C@H](OC)CC4(C)C)nc(-c4c(O)cccc4F)c(Cl)c3OC[C@H]2C1", "note": "(single isomer, unassigned) [Z244-2]", "IC50": 5}
{"smiles": "C=CC(=O)N1CCN2C(=O)c3c(N4C[C@H](O)[C@H]4C)nc(-c4c(O)cccc4F)c(Cl)c3OC[C@H]2C1", "note": "(single isomer, unassigned) [Z102-4]", "IC50": 134}
{"smiles": "C=CC(=O)N1CCN2C(=O)c3c(N4CC[C@@H]5C[C@@H]54)nc(-c4c(O)cccc4F)c(Cl)c3OC[C@H]2C1", "note": "(single isomer, unassigned) [Z39-2]", "IC50": 88}
{"smiles": "C=CC(=O)N1CCN2C(=O)c3c(N4CCOCC4)nc(-c4nc(N)cc(C)c4C(F)(F)F)c(Cl)c3OC[C@H]2C1", "note": "[Z314]", "IC50": 62}
{"smiles": "C=CC(=O)N1CCN2C(=O)c3c(N4CCC(C)(C)C4)nc(-c4c(O)cccc4F)c(Cl)c3OC[C@H]2C1", "note": "[Z21, (6aR)-8-acryloyl-4-chloro-1-(3,3-dimethylpyrrolidin-1-yl)-3-(2-fluoro-6-hydroxyphenyl)-6,6a,7,8,9,10-hexahydro-12H-pyrazino[2,1-c]pyrido[3,4-f][1,4]oxazepin-12-one]", "IC50": 325}
{"smiles": "C=CC(=O)N1CCN2C(=O)c3c(N4CCN(C)[C@H](C)[C@@H]4C)nc(-c4c(O)cccc4F)c(Cl)c3OC[C@H]2C1", "note": "(single isomer, unassigned) [Z308a-1]", "IC50": 71}
{"smiles": "C=CC(=O)N1CCN2C(=O)c3c(N4CC[C@@H](OC)C4(C)C)nc(-c4c(O)cccc4F)c(F)c3OC[C@H]2C1", "note": "(single isomer, unassigned) [Z327-1]", "IC50": 66}
{"smiles": "C=CC(=O)N1CCN2C(=O)c3c(N4CC(N5CCOCC5)CC4(C)C)nc(-c4c(O)cccc4F)c(Cl)c3OC[C@H]2C1", "note": "(stereo partly drawn) [Z344, (6aR)-8-acryloyl-4-chloro-1-((2,2-dimethyl-4-morpholinopyrrolidin-1-yl))-3-(2-fluoro-6-hydroxyphenyl)-6,6a,7,8,9,10-hexahydro-12H-pyrazino[2,1-c]pyrido[3,4-f][1,4]oxazepin-12-one]", "IC50": 10}
